Measured values from patent US9181305B2, “Exendin-4 peptide analogues” (SANOFI, priority 2012, dated 2015).
*1 amine or outer side, *2 acyl side, *3 side chain or, on linkers, in order; H or OH if unused. Where a SMILES comes first, the peptide text is derived from it. Side-chain parts run from the residue outwards. [ ]: non-standard residue; d: D form. The star is where a group is joined. γGlu = O=C(O)[C@H](CCC(=O)[*:2])N[*:1]; Palmitoyl = CCCCCCCCCCCCCCCC(=O)*; Aib = CC(C)(N)C(=O)O; GABA = NCCCC(=O)O

Legend:
physchem = assay type: physicochemical
Experimental: Prior to the testing of solubility and stability of a peptide batch, its content was determined. Therefore, two parameters were investigated, its purity (HPLC-UV) and the amount of salt load of the batch (ion chromatography). Since synthesized peptides contain primarily trifluoracetate anions, only anion chromatography was performed. The content was then calculated based on the assumption that peptide-related impurities are detected at the same UV-absorption rate as the target peptide, as well as that cations are not present in the sample.
Therefore, solutions from solid samples were prepared in different buffer systems with a concentration of 1.0 mg/mL compound based on the previously determined content. HPLC-UV was performed after 2 h of gentle agitation from the supernatant, which was obtained by 20 min of centrifugation at 4000 rpm. […] This analysis also served as t0 for the stability testing.
Instrument: Agilent 1100, column: X-Bridge C18 3.5 μm 2.1×150 mm (Waters), eluent: A: H20+500 ppm TFA/B: Methanol, flow: 0.55 ml/min, gradient: 0-5 min: 10-60% B; 5-15 min: 60-99% B; detection: 214 nm.

[1] = target: T1, human GLP-1 receptor (hGLP-1 R) (Homo sapiens, UniProt P43220); experiment: cAMP response (HTRF) of HEK-293 cells stably expressing human GLP-1 receptor; assay type: cell-based; settings: HEK-293 cells expressing human GLP-1 receptor, cAMP formation
T1 construct: expressed in transfected cells; host or cells: HEK-293
T1 sequence (P43220 24-463): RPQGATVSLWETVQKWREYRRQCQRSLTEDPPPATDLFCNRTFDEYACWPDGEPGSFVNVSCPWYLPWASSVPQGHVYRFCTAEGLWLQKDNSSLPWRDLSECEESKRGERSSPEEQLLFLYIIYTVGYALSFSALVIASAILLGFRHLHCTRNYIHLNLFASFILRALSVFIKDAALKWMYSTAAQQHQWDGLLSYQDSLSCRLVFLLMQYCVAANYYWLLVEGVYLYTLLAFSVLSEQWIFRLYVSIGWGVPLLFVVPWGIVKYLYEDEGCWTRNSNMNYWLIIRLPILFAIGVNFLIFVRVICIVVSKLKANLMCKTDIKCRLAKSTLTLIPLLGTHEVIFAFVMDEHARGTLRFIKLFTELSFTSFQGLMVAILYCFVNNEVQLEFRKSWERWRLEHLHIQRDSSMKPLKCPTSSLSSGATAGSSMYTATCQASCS
Experimental: cAMP content of cells was determined using a kit from Cisbio Corp. (cat. no. 62AM4PEC) based on HTRF (Homogenous Time Resolved Fluorescence). For preparation, cells were split into T175 culture flasks and grown overnight to near confluency in medium (DMEM/10% FBS). Medium was then removed and cells washed with PBS lacking calcium and magnesium, followed by proteinase treatment with accutase (Sigma-Aldrich cat. no. A6964). Detached cells were washed and resuspended in assay buffer (1×HBSS; 20 mM HEPES, 0.1% BSA, 2 mM IBMX) and cellular density determined. […] For measurement, 25 μl of test compound in assay buffer was added to the wells, followed by incubation for 30 minutes at room temperature.

Compound	solubility at 2 h (physchem; pH 4.5) [µg/mL]	solubility at 2 h (physchem; pH 7.4) [µg/mL]	EC50 [1] [pM]
CCCCCCCCCCCCCCCC(=O)N[C@@H](CCC(=O)NCCCC[C@H](NC(=O)[C@H](CO)NC(=O)[C@@H]1CCCN1C(=O)[C@@H]1CCCN1C(=O)[C@@H]1CCCN1C(=O)[C@H](C)NC(=O)CNC(=O)[C@H](CO)NC(=O)[C@H](CO)NC(=O)[C@@H]1CCCN1C(=O)CNC(=O)CNC(=O)[C@H](C)NC(=O)[C@H](CCCCN)NC(=O)[C@H](CC(C)C)NC(=O)[C@H](Cc1c[nH]c2ccccc12)NC(=O)[C@H](CCC(=O)O)NC(=O)[C@@H](NC(=O)[C@H](Cc1ccccc1)NC(=O)[C@H](CC(=O)O)NC(=O)[C@H](CCC(N)=O)NC(=O)[C@H](C)NC(=O)[C@H](CCCNC(=N)N)NC(=O)[C@H](CCCNC(=N)N)NC(=O)[C@H](CO)NC(=O)[C@H](CC(=O)O)NC(=O)[C@H](CCSC)NC(=O)[C@H](CCC(N)=O)NC(=O)[C@H](CCCCN)NC(=O)[C@H](CO)NC(=O)[C@H](CC(C)C)NC(=O)[C@H](CC(=O)O)NC(=O)[C@H](CO)NC(=O)[C@@H](NC(=O)[C@H](Cc1ccccc1)NC(=O)[C@@H](NC(=O)CNC(=O)[C@H](CCC(N)=O)NC(=O)[C@@H](CO)NC(=O)[C@@H](N)Cc1c[nH]cn1)[C@@H](C)O)[C@@H](C)O)[C@@H](C)CC)C(N)=O)C(=O)O [(60)] (H-H[dS]QGTFTSDLSKQMDSRRAQDFIEWLKAGGPSSGAPPPSK([γGlu-Palmitoyl])-NH2)	> 1000	> 1000	
CCCCCCCCCCCCCCCC(=O)N[C@@H](CCC(=O)NCCCC[C@H](NC(=O)[C@H](CO)NC(=O)[C@@H]1CCCN1C(=O)[C@@H]1CCCN1C(=O)[C@@H]1CCCN1C(=O)[C@H](C)NC(=O)CNC(=O)[C@H](CO)NC(=O)[C@H](CO)NC(=O)[C@@H]1CCCN1C(=O)CNC(=O)CNC(=O)[C@H](CO)NC(=O)[C@H](CCCCN)NC(=O)[C@H](CC(C)C)NC(=O)[C@H](Cc1c[nH]c2ccccc12)NC(=O)[C@H](CCC(=O)O)NC(=O)[C@@H](NC(=O)[C@H](Cc1ccccc1)NC(=O)[C@H](CC(=O)O)NC(=O)[C@H](CCC(N)=O)NC(=O)[C@H](C)NC(=O)[C@H](C)NC(=O)[C@H](CCCNC(=N)N)NC(=O)[C@H](CO)NC(=O)[C@H](CCC(=O)O)NC(=O)[C@H](CCSC)NC(=O)[C@H](CCC(N)=O)NC(=O)[C@H](CCCCN)NC(=O)[C@H](CO)NC(=O)[C@H](CC(C)C)NC(=O)[C@H](CC(=O)O)NC(=O)[C@H](CO)NC(=O)[C@@H](NC(=O)[C@H](Cc1ccccc1)NC(=O)[C@@H](NC(=O)CNC(=O)[C@H](CCC(N)=O)NC(=O)[C@@H](CO)NC(=O)[C@@H](N)Cc1c[nH]cn1)[C@@H](C)O)[C@@H](C)O)[C@@H](C)CC)C(N)=O)C(=O)O [(103)] (H-H[dS]QGTFTSDLSKQMESRAAQDFIEWLKSGGPSSGAPPPSK([γGlu-Palmitoyl])-NH2)			3.7
CCCCCCCCCCCCCCCC(=O)N[C@@H](CCC(=O)NCCCC[C@H](NC(=O)[C@H](CO)NC(=O)[C@@H]1CCCN1C(=O)[C@@H]1CCCN1C(=O)[C@@H]1CCCN1C(=O)[C@H](C)NC(=O)CNC(=O)[C@H](CO)NC(=O)[C@H](CO)NC(=O)[C@@H]1CCCN1C(=O)CNC(=O)CNC(=O)[C@H](C)NC(=O)[C@H](CCCCN)NC(=O)[C@H](CC(C)C)NC(=O)[C@H](Cc1c[nH]c2ccccc12)NC(=O)[C@H](CCC(=O)O)NC(=O)[C@@H](NC(=O)[C@H](Cc1ccccc1)NC(=O)[C@H](CC(=O)O)NC(=O)[C@H](CCCCN)NC(=O)[C@H](C)NC(=O)[C@H](C)NC(=O)[C@H](CCC(=O)O)NC(=O)[C@H](CCC(=O)O)NC(=O)[C@H](CCC(=O)O)NC(=O)[C@H](CCSC)NC(=O)[C@H](CCC(N)=O)NC(=O)[C@H](CCCCN)NC(=O)[C@H](CO)NC(=O)[C@H](CC(C)C)NC(=O)[C@H](CC(=O)O)NC(=O)[C@H](CO)NC(=O)[C@@H](NC(=O)[C@H](Cc1ccccc1)NC(=O)[C@@H](NC(=O)CNC(=O)[C@H](CCC(N)=O)NC(=O)[C@@H](CO)NC(=O)[C@@H](N)Cc1c[nH]cn1)[C@@H](C)O)[C@@H](C)O)[C@@H](C)CC)C(N)=O)C(=O)O [(110)] (H-H[dS]QGTFTSDLSKQMEEEAAKDFIEWLKAGGPSSGAPPPSK([γGlu-Palmitoyl])-NH2)			2.9
CCCCCCCCCCCCCCCC(=O)N[C@@H](CCC(=O)NCCCC[C@H](NC(=O)[C@H](CO)NC(=O)[C@@H]1CCCN1C(=O)[C@@H]1CCCN1C(=O)[C@@H]1CCCN1C(=O)[C@H](C)NC(=O)CNC(=O)[C@H](CO)NC(=O)[C@H](CO)NC(=O)[C@@H]1CCCN1C(=O)CNC(=O)CNC(=O)[C@H](C)NC(=O)[C@H](CCCCN)NC(=O)[C@H](CC(C)C)NC(=O)[C@H](Cc1c[nH]c2ccccc12)NC(=O)[C@H](CCC(=O)O)NC(=O)[C@@H](NC(=O)[C@H](Cc1ccccc1)NC(=O)[C@H](CC(=O)O)NC(=O)[C@H](CCC(N)=O)NC(=O)[C@H](C)NC(=O)[C@H](C)NC(=O)C(C)(C)NC(=O)[C@H](CO)NC(=O)[C@H](CCC(=O)O)NC(=O)[C@H](CCSC)NC(=O)[C@H](CCC(N)=O)NC(=O)[C@H](CCCCN)NC(=O)[C@H](CO)NC(=O)[C@H](CC(C)C)NC(=O)[C@H](CC(=O)O)NC(=O)[C@H](CO)NC(=O)[C@@H](NC(=O)[C@H](Cc1ccccc1)NC(=O)[C@@H](NC(=O)CNC(=O)[C@H](CCC(N)=O)NC(=O)[C@@H](CO)NC(=O)[C@@H](N)Cc1c[nH]cn1)[C@@H](C)O)[C@@H](C)O)[C@@H](C)CC)C(N)=O)C(=O)O [(111)] (H-H[dS]QGTFTSDLSKQMES[Aib]AAQDFIEWLKAGGPSSGAPPPSK([γGlu-Palmitoyl])-NH2)			4.1
CCCCCCCCCCCCCCCC(=O)N[C@@H](CCC(=O)NCCCC[C@H](NC(=O)[C@H](CO)NC(=O)[C@@H]1CCCN1C(=O)[C@@H]1CCCN1C(=O)[C@@H]1CCCN1C(=O)[C@H](C)NC(=O)CNC(=O)[C@H](CO)NC(=O)[C@H](CO)NC(=O)[C@@H]1CCCN1C(=O)CNC(=O)CNC(=O)[C@H](C)NC(=O)[C@H](CCCCN)NC(=O)[C@H](CC(C)C)NC(=O)[C@H](Cc1c[nH]c2ccccc12)NC(=O)[C@H](CCC(=O)O)NC(=O)[C@@H](NC(=O)[C@H](Cc1ccccc1)NC(=O)[C@H](CC(C)C)NC(=O)[C@H](CCC(N)=O)NC(=O)[C@H](C)NC(=O)[C@H](C)NC(=O)C(C)(C)NC(=O)[C@H](CO)NC(=O)[C@H](CCC(=O)O)NC(=O)[C@H](CCSC)NC(=O)[C@H](CCC(N)=O)NC(=O)[C@H](CCCCN)NC(=O)[C@H](CO)NC(=O)[C@H](CC(C)C)NC(=O)[C@H](CC(=O)O)NC(=O)[C@H](CO)NC(=O)[C@@H](NC(=O)[C@H](Cc1ccccc1)NC(=O)[C@@H](NC(=O)CNC(=O)[C@H](CCC(N)=O)NC(=O)[C@@H](CO)NC(=O)[C@@H](N)Cc1c[nH]cn1)[C@@H](C)O)[C@@H](C)O)[C@@H](C)CC)C(N)=O)C(=O)O [(112)] (H-H[dS]QGTFTSDLSKQMES[Aib]AAQLFIEWLKAGGPSSGAPPPSK([γGlu-Palmitoyl])-NH2)			9.7
CCCCCCCCCCCCCCCC(=O)N[C@@H](CCC(=O)NCCCC[C@H](NC(=O)[C@H](CO)NC(=O)[C@@H]1CCCN1C(=O)[C@@H]1CCCN1C(=O)[C@@H]1CCCN1C(=O)[C@H](C)NC(=O)CNC(=O)[C@H](CO)NC(=O)[C@H](CO)NC(=O)[C@@H]1CCCN1C(=O)CNC(=O)CNC(=O)[C@H](C)NC(=O)[C@H](CCCCN)NC(=O)[C@H](CC(C)C)NC(=O)[C@H](Cc1c[nH]c2ccccc12)NC(=O)[C@H](CCC(=O)O)NC(=O)[C@@H](NC(=O)[C@H](Cc1ccccc1)NC(=O)[C@H](CC(C)C)NC(=O)[C@H](CCC(N)=O)NC(=O)[C@H](C)NC(=O)[C@H](C)NC(=O)[C@H](CCC(=O)O)NC(=O)[C@H](CO)NC(=O)[C@H](CCC(=O)O)NC(=O)[C@H](CCSC)NC(=O)[C@H](CCC(N)=O)NC(=O)[C@H](CCCCN)NC(=O)[C@H](CO)NC(=O)[C@H](CC(C)C)NC(=O)[C@H](CC(=O)O)NC(=O)[C@H](CO)NC(=O)[C@@H](NC(=O)[C@H](Cc1ccccc1)NC(=O)[C@@H](NC(=O)CNC(=O)[C@H](CCC(N)=O)NC(=O)[C@@H](CO)NC(=O)[C@@H](N)Cc1c[nH]cn1)[C@@H](C)O)[C@@H](C)O)[C@@H](C)CC)C(N)=O)C(=O)O [(114)] (H-H[dS]QGTFTSDLSKQMESEAAQLFIEWLKAGGPSSGAPPPSK([γGlu-Palmitoyl])-NH2)			3.1
CCCCCCCCCCCCCCCC(=O)NCCCC(=O)NCCCC[C@H](NC(=O)[C@H](CO)NC(=O)[C@@H]1CCCN1C(=O)[C@@H]1CCCN1C(=O)[C@@H]1CCCN1C(=O)[C@H](C)NC(=O)CNC(=O)[C@H](CO)NC(=O)[C@H](CO)NC(=O)[C@@H]1CCCN1C(=O)CNC(=O)CNC(=O)[C@H](CO)NC(=O)[C@H](CCCCN)NC(=O)[C@H](CC(C)C)NC(=O)[C@H](Cc1c[nH]c2ccccc12)NC(=O)[C@H](CCC(=O)O)NC(=O)[C@@H](NC(=O)[C@H](Cc1ccccc1)NC(=O)[C@H](CC(=O)O)NC(=O)[C@H](CCC(N)=O)NC(=O)[C@H](C)NC(=O)[C@H](CCCNC(=N)N)NC(=O)[C@H](CCCNC(=N)N)NC(=O)[C@H](CO)NC(=O)[C@H](CCC(=O)O)NC(=O)[C@H](CCSC)NC(=O)[C@H](CCC(N)=O)NC(=O)[C@H](CCCCN)NC(=O)[C@H](CO)NC(=O)[C@H](CC(C)C)NC(=O)[C@H](CC(=O)O)NC(=O)[C@H](CO)NC(=O)[C@@H](NC(=O)[C@H](Cc1ccccc1)NC(=O)[C@@H](NC(=O)CNC(=O)[C@H](CCC(N)=O)NC(=O)[C@@H](CO)NC(=O)[C@@H](N)Cc1c[nH]cn1)[C@@H](C)O)[C@@H](C)O)[C@@H](C)CC)C(N)=O [(125)] (H-H[dS]QGTFTSDLSKQMESRRAQDFIEWLKSGGPSSGAPPPSK([GABA-Palmitoyl])-NH2)			10.8
